Results taken from ChEMBL document CHEMBL1135565, “Synthesis of base-modified dihydropacidamycins” (2002).

Key:
Assay type in all cases: functional
Escherichia coli = test: Minimum inhibitory concentration against Escherichia coli
Staphylococcus aureus = test: Minimum inhibitory concentration against Staphylococcus aureus
Pseudomonas aeruginosa = test: Minimum inhibitory concentration against Pseudomonas aeruginosa
Pasteurella multocida = test: Minimum inhibitory concentration against Pasteurella multocida

Measured: MIC

C[C@H](NC(=O)N[C@@H](Cc1c[nH]c2ccccc12)C(=O)O)C(=O)N[C@H](C(=O)NC[C@H]1C[C@@H](O)[C@H](n2ccc(=O)n(C)c2=O)O1)[C@H](C)N(C)C(=O)[C@@H](C)N
> 512 µg/mL: all assays above

COc1cccn([C@@H]2O[C@@H](CNC(=O)[C@@H](NC(=O)[C@H](C)NC(=O)N[C@@H](Cc3c[nH]c4ccccc34)C(=O)O)[C@H](C)N(C)C(=O)[C@@H](C)N)C[C@H]2O)c1=O
> 512 µg/mL: all assays above

Cc1cn([C@@H]2O[C@@H](CNC(=O)[C@@H](NC(=O)[C@H](C)NC(=O)N[C@@H](Cc3c[nH]c4ccccc34)C(=O)O)[C@H](C)N(C)C(=O)[C@@H](C)N)C[C@H]2O)c(=O)[nH]c1=O
> 512 µg/mL: all assays above

Cc1c(C)n([C@@H]2O[C@@H](CNC(=O)[C@@H](NC(=O)[C@H](C)NC(=O)N[C@@H](Cc3c[nH]c4ccccc34)C(=O)O)[C@H](C)N(C)C(=O)[C@@H](C)N)C[C@H]2O)c(=O)[nH]c1=O
> 512 µg/mL: all assays above

C[C@H](NC(=O)N[C@@H](Cc1c[nH]c2ccccc12)C(=O)O)C(=O)N[C@H](C(=O)NC[C@H]1C[C@@H](O)[C@H](n2cc(Cl)c(=O)[nH]c2=O)O1)[C@H](C)N(C)C(=O)[C@@H](C)N
> 512 µg/mL: all assays above

C[C@H](NC(=O)N[C@@H](Cc1c[nH]c2ccccc12)C(=O)O)C(=O)N[C@H](C(=O)NC[C@H]1C[C@@H](O)[C@H](n2cc(F)c(=O)[nH]c2=O)O1)[C@H](C)N(C)C(=O)[C@@H](C)N
> 512 µg/mL: all assays above

Cc1cc(=O)[nH]c(=O)n1[C@@H]1O[C@@H](CNC(=O)[C@@H](NC(=O)[C@H](C)NC(=O)N[C@@H](Cc2c[nH]c3ccccc23)C(=O)O)[C@H](C)N(C)C(=O)[C@@H](C)N)C[C@H]1O
> 512 µg/mL: all assays above
